Test results: PMC10046037, “GABRG2 Variants Associated with Febrile Seizures” (Biomolecules, 2023)

Target: T1, α1β3γ2 GABAA receptor, γ2R408K variant (Homo sapiens, UniProt P14867+P18507+P28472, R408K)
T1 construct: expressed in transfected cells; host or cells: HEK293T
T1 sequence (P14867 28-456): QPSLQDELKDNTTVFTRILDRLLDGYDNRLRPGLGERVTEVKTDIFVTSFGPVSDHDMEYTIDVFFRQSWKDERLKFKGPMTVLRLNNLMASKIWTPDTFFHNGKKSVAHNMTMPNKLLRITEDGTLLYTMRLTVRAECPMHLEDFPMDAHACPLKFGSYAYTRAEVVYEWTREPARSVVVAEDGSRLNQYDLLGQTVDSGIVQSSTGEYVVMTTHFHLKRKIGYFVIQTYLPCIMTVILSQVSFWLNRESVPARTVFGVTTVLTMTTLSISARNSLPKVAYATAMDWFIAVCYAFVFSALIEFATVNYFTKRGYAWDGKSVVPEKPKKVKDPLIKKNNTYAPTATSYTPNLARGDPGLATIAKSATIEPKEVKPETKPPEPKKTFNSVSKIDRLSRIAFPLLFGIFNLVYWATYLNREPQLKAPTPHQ
T1 sequence (P28472 26-473 isoform P28472-2): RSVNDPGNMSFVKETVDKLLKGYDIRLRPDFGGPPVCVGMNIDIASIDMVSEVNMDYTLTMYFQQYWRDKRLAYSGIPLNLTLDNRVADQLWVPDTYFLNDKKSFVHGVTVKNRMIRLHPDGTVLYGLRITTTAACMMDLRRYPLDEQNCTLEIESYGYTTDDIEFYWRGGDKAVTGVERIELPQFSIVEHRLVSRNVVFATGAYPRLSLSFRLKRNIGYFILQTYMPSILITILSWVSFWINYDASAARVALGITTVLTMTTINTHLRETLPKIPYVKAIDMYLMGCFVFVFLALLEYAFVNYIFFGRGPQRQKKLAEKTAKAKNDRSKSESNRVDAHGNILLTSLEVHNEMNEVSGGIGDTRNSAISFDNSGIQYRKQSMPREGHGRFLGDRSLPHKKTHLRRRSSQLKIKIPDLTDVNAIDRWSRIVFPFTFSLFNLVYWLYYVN
T1 sequence (P18507 40-475 R408K): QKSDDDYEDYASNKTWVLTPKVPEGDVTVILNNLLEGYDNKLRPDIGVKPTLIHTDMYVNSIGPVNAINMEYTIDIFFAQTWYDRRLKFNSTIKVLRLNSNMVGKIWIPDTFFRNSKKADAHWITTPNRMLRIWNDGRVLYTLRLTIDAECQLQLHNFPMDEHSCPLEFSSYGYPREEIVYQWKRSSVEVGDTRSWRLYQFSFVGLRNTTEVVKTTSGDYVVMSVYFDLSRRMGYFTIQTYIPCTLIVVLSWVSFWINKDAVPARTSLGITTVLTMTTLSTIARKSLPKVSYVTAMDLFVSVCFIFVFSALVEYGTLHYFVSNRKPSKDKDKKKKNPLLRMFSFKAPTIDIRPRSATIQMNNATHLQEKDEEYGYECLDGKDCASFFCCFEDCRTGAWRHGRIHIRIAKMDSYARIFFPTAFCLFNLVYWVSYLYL
Assay: Automated patch clamp of GABA-elicited currents (SyncroPatch 384PE), γ2R408K
Type: cell-based
Conditions: 1 mM GABA for 5 ms, HEK293T, mean
Experimental: The coding sequences of human α1 (GABRA1, NM_000806), β3 (GABRB3, NM_021912), and γ2 (GABRG2, NM_198904.2) GABAAR subunits were subcloned into the pcDNA3.1 expression vectors (Invitrogen, Waltham, MA, USA).
HEK293T cells (ATCC, CRL-11268) were cultured at 37 °C in a humidified 5% CO2 incubator and maintained in Dulbecco’s modified Eagle’s medium (Invitrogen) supplemented with 10% fetal bovine serum (Life Technologies, Carlsbad, CA, USA), and 100 IU/mL of penicillin/streptomycin (Life Technologies). For the expression experiments, 4 × 10^5 cells were transfected using polyethylenimine (PEI) reagent (40 kD, Polysciences, Warrington, PA, USA) at a DNA: to transfection reagent ratio of 1:2.5 and harvested 36 h after transfection. To express WT and variant α1β3γ2 receptors, a total of 3 µg of α1, β3, and γ2 (WT or mutant) subunit cDNAs were transfected at a ratio of 1:1:1 into 60 mm culture dishes. For the mock-transfected condition, an empty pcDNA3.1 vector was added for a final cDNA transfection amount of 3 μg. For the electrophysiology experiments, 2.5 × 10^5 cells were plated in 100 mm culture dishes and transfected after 24 h with 3 μg of cDNA of each α1, β3, γ2 (wild-type or mutant) subunit, using X-tremeGENE HP DNA transfection Reagent (Roche Diagnostics, Basel, Switzerland), following the manufacturer’s protocol. Recordings were obtained forty-eight hours after transfection.
Whole-cell patch clamp recordings were conducted according to the manufacturer’s standard procedure for the SyncroPatch 384 [31]. […] Using PatchControl 384, electrophysiological parameters, such as seal resistance, capacitance, and series resistance, were determined for each well after the application of a test pulse, and subsequently monitored over time. […] The currents were normalized to the maximal response of each well, and the concentration–response curves were calculated from single-point additions. The EC50 values for each variant or wild-type receptor were calculated across multiple wells for each experimental condition.

NCCCC(=O)O [GABA, γ-aminobutyric acid]
Deactivation (-80 mV): 165.4 ms | IMAX (maximal GABA-evoked peak current): 0.22 nA | Rise Time (10–90% rise time): 40.23 ms
